# Test results as given in PMC5740381 (Antimicrobial Agents and Chemotherapy, 2017).
# Key:
# [1] = system: HIV-1 pNL4-3; assay: HIV-1 5-day cytoprotection assay in MT4 cells; assay type: cell-based, human immunodeficiency virus type 1; settings: Human immunodeficiency virus 1, HIV-1 pNL4-3 infectivity, HIV-1 PI alone
# Description: . […]. The plates were incubated at 37°C for 5 days. After this period, 25 μl MTT reagent (4 mg/ml) was added to the cells, and the plates were incubated for 4 h. The MTT formazan formed in the cells was solubilized by 50 μl of acidified SDS overnight. The plates were read at wavelengths of 570 and 650 nm using a spectrophotometer. […]
# [2] = molecular target: T1, 2b D168A; assay: Luciferase assay of HCV replication in transient-transfection replicons with wild-type or substituted NS3 (at least 3 transfections).; assay type: cell-based, Huh-7; settings: SD, n = 3
# T1 construct: in genotype 2a JFH-1 chimeric transient replicon
# [3] = molecular target: T2, GT6a / 6a Wild type; assay: as above; assay type: cell-based, Huh-7; settings: SD, n = 3
# T2 construct: NS3 N-terminal region in chimeric replicon
# [4] = molecular target: T3, 3a Q168R; assay: as above; assay type: cell-based, Huh-7; settings: SD, n = 3
# T3 construct: in chimeric transient replicon
# [5] = molecular target: T4, 2b D168V; assay: as above; assay type: cell-based, Huh-7; settings: SD, n = 3
# T4 construct: in genotype 2a JFH-1 chimeric transient replicon
# [6] = molecular target: T5, 4a A156T; assay: as above; assay type: cell-based, Huh-7; settings: SD, n = 3
# T5 construct: in chimeric transient replicon
# [7] = system: 4d D168V; settings: read-out: Mean EC50 ± SD, n = 3
# Description: Mutagenesis was performed using a Change-IT multiple-mutation site-directed mutagenesis kit (USB, Cleveland, OH) or by cloning a synthesized DNA fragment encoding the amino acid substitution(s). The genotype 1a and 1b replicon shuttle vectors used for the introduction of the substitutions of interest in the NS3, NS5A, or NS5B gene for transient-transfection assays have been described previously ([28], [33]). The replicon shuttle vectors used for the introduction of substitutions in NS3 genes from other genotypes were similar to the stable replicon cell line constructs described above, except for the absence of the neo gene. After mutagenesis, the plasmids were linearized and RNA was transcribed and then used to transfect Huh-7 cells. Inhibition of HCV replication by the HCV inhibitors was measured by luciferase assay, as described above. Replication efficiency was calculated as a percentage of wild-type replication, as described previously ([28]).
# [8] = molecular target: T6, 4d Wild type; assay: Luciferase assay of HCV replication in transient-transfection replicons with wild-type or substituted NS3 (at least 3 transfections).; assay type: cell-based, Huh-7; settings: SD, n = 3
# T6 construct: NS3 in transient replicon
# [9] = molecular target: T7, 6a D168A; assay: as above; assay type: cell-based, Huh-7; settings: SD, n = 3
# T7 construct: in chimeric transient replicon
# [10] = molecular target: T8, 4a D168H; assay: as above; assay type: cell-based, Huh-7; settings: SD, n = 3
# T8 construct: in chimeric transient replicon
# [11] = molecular target: T9, 6a D168V; assay: as above; assay type: cell-based, Huh-7; settings: SD, n = 3
# T9 construct: in chimeric transient replicon
# [12] = molecular target: T10, 4a D168V; assay: as above; assay type: cell-based, Huh-7; settings: SD, n = 3
# T10 construct: in chimeric transient replicon
# [13] = molecular target: T11, GT3a / 3a Wild type; assay: as above; assay type: cell-based, Huh-7; settings: SD, n = 3
# T11 construct: NS3 N-terminal region in chimeric replicon
# [14] = molecular target: T12, 2b A156T; assay: as above; assay type: cell-based, Huh-7; settings: SD, n = 3
# T12 construct: in genotype 2a JFH-1 chimeric transient replicon
# [15] = molecular target: T13, GT4a / 4a Wild type; assay: as above; assay type: cell-based, Huh-7; settings: SD, n = 3
# T13 construct: NS3 N-terminal region in chimeric replicon
# [16] = molecular target: T14, 2b D168E; assay: as above; assay type: cell-based, Huh-7; settings: SD, n = 3
# T14 construct: in genotype 2a JFH-1 chimeric transient replicon
# [17] = molecular target: T15, 2b A156V; assay: as above; assay type: cell-based, Huh-7; settings: SD, n = 3
# T15 construct: in genotype 2a JFH-1 chimeric transient replicon
# [18] = molecular target: T16, 6a D168H; assay: as above; assay type: cell-based, Huh-7; settings: SD, n = 3
# T16 construct: in chimeric transient replicon
# [19] = system: T13, GT4a / 4a Wild type; assay: Luciferase reporter assay of HCV replication in stable subgenomic replicon cells, 5% fetal bovine serum, no human plasma (at least 3 experiments).; assay type: cell-based, Huh-7; settings: SD, n = 3; read-out: HCV stable replicons in 0% human plasma, Mean EC50 ± SD
# Text: (§1) . Five of these nine cell lines have been described previously, including those transfected with genotypes 1a H77, 1b Con1, 3a, 4a, and 6a ([28]). The other four cell lines were established by transfecting cells with a nonchimeric genotype 2a JFH-1 replicon (GenBank accession number AB047639), two genotype 2a JFH-1 chimeric replicons containing either a genotype 2b NS3 protease domain (N-terminal 251 amino acids) or a sequence encoding full-length NS3 through the first 39 amino acids of NS5B from genotype 5a (strain SA13), and one chimeric replicon with a genotype 1b Con1 backbone containing full-length NS3 and NS4A sequences from genotype 6e. The genotype 2b and 6e NS3 sequences were each synthetically constructed based on a consensus sequence derived from the alignment of 15 genotype 2b and 4 genotype 6e sequences, respectively. All replicon constructs were bicistronic subgenomic replicons similar to those described by Bartenschlager and coworkers, and the replicon cell lines were generated by introducing these constructs into cells of an Huh-7 human hepatoma-derived cell line ([50]). The inhibitory effect of the PIs on HCV replication in replicon cells was determined in Dulbecco's modified Eagle medium containing 5% fetal bovine serum with or without 40% human plasma (Bioreclamation, Westbury, NY). The EC50s were determined using nonlinear regression curve fitting as described previously ([33]).
# [20] = system: T17, GT6e; assay: as above; assay type: cell-based, Huh-7; settings: SD, n = 3; read-out: HCV stable replicons in 0% human plasma, Mean EC50 ± SD
# T17 construct: full-length NS3 and NS4A in genotype 1b Con1 chimeric replicon
# Text: as §1
# [21] = system: T2, GT6a / 6a Wild type; assay: as above; assay type: cell-based, Huh-7; settings: SD, n = 3; read-out: HCV stable replicons in 0% human plasma, Mean EC50 ± SD
# Text: as §1
# [22] = system: T11, GT3a / 3a Wild type; assay: as above; assay type: cell-based, Huh-7; settings: SD, n = 3; read-out: HCV stable replicons in 0% human plasma, Mean EC50 ± SD
# Text: as §1
# [23] = molecular target: T18, 3a A156G; assay: Luciferase assay of HCV replication in transient-transfection replicons with wild-type or substituted NS3 (at least 3 transfections).; assay type: cell-based, Huh-7; settings: SD, n = 3
# T18 construct: in chimeric transient replicon
# [24] = molecular target: T19, 4a A156V; assay: as above; assay type: cell-based, Huh-7; settings: SD, n = 3
# T19 construct: in chimeric transient replicon
# [25] = molecular target: T20, 4a R155C; assay: as above; assay type: cell-based, Huh-7; settings: SD, n = 3
# T20 construct: in chimeric transient replicon
# [26] = molecular target: T21, GT2b / 2b Wild type; assay: as above; assay type: cell-based, Huh-7; settings: SD, n = 3
# T21 construct: NS3 protease domain (N-terminal 251 aa) in genotype 2a JFH-1 chimeric replicon
# [27] = system: genotype 1b Con1 replicon cells; assay: Checkerboard combination assay (MacSynergy II); assay type: cell-based, Hepatitis C virus
# Description: […]. The resulting data were analyzed using the MacSynergy II program ([34], [51], [52]). The assignment of the synergy or antagonism volumes was based on the guidelines provided in the MacSynergy II program user's manual ([34]).
compound,measurement,setting,value
CC(C)CN(C[C@@H](O)[C@H](Cc1ccccc1)NC(=O)O[C@H]1CO[C@H]2OCC[C@H]21)S(=O)(=O)c1ccc(N)cc1 [Darunavir],EC50,[1],10 nM
"C=C[C@@H]1C[C@]1(NC(=O)[C@@H]1C[C@@H]2CN1C(=O)[C@H](C(C)(C)C)NC(=O)O[C@@H]1C[C@H]1CCCCCc1nc3ccc(OC)cc3nc1O2)C(=O)NS(=O)(=O)C1CC1 [Grazoprevir, grazoprevir (MK-5172)]",EC50,[2],347 ± 113 nM
same,EC50,[3],0.1 ± 0.02 nM
same,EC50,[4],165 ± 46 nM
same,EC50,[5],88 ± 19 nM
same,EC50,[6],296 ± 22 nM
same,EC50,[7],2.5 ± 0.08 nM
same,EC50,[8],0.18 ± 0.01 nM
same,EC50,[9],103 ± 34 nM
same,EC50,[10],25 ± 6.3 nM
same,EC50,[11],24 ± 1.2 nM
same,EC50,[12],13 ± 1.1 nM
same,EC50,[13],47 ± 14 nM
same,EC50,[14],1560 nM
same,EC50,[15],0.28 ± 0.04 nM
same,EC50,[16],35 ± 6 nM
same,EC50,[17],2890 nM
same,EC50,[18],45 ± 4.1 nM
same,EC50,[19],1.2 ± 0.31 nM
same,EC50,[20],0.25 ± 0.01 nM
same,EC50,[21],0.89 ± 0.32 nM
same,EC50,[22],83 ± 18 nM
same,EC50,[23],614 ± 148 nM
same,EC50,[24],169 ± 27 nM
same,EC50,[25],2 ± 0.27 nM
same,EC50,[26],6.1 ± 1.3 nM
Cc1cccc(C)c1OCC(=O)N[C@@H](Cc1ccccc1)[C@@H](O)C[C@H](Cc1ccccc1)NC(=O)[C@H](C(C)C)N1CCCNC1=O [Lopinavir],EC50,[1],23 nM
"NC(=O)c1ncn([C@@H]2O[C@H](CO)[C@@H](O)[C@H]2O)n1 [RBV, reference compound]",EC50,[27]; Hepatitis C virus,19000 nM
IFN-α,EC50,[27]; genotype 1b replicon cells,1.2 IU/ml
